Laboratory results published in US20140378515A1, “IMMUNOSUPPRESSIVE COMPOUNDS” (priority 2013, published 2014).
Values after ≈ are worked out from the molar mass of the structure shown. Values joined by “and” are separate entries in the source; they are usually repeats but may differ in a detail not shown here. Equal entries are not always repeated.

Columns and labels:
[1] = system: ROS produced by human blood phagocytes; experiment: Oxidative burst, luminol-enhanced chemiluminescence in whole blood; format: cell-based; conditions: serum opsonized zymosan
Protocol: Formation of the reactive oxygen species (ROS) in whole blood, during the oxidative burst was measured by the luminol-enhanced chemiluminescence assay. In brief, three concentrations of each compound (1.0, 10 and 100 μg/mL) were prepared in 25 μL of Hank's Balanced salt solution containing calcium chloride and magnesium sulfate (HBSS^++) in a half area 96-well white flat-bottomed plate (Sigma Aldrich, Steinheim, Germany) in a final volume of 100 μL. Then 25 μL of whole blood diluted 1:50 in suspension of HBSS^++ was added.
Positive and negative controls and blank wells were included. Cells and compounds were incubated for 30 minutes at 37° C., then 25 μL luminol [3-aminophthalhydrazide] (Research Organics Cleveland, Ohio, USA), were added into each well followed by 25 μL of serum opsonized zymosan (Saccharomyces cerevisiae origin) purchased from Fluka, Buchs (Switzerland) was added except for negative and blank wells. The ROS chemiluminescence kinetic was monitored with a luminometer from Labsystems (Helsinki, Finland), for 50 minutes in the repeated scan mode. Peak and total integral chemiluminescence readings were expressed in the relative light unit.

[2] = system: 3T3 NIH mouse embryo fibroblast cell line; experiment: MTT cytotoxicity assay; conditions: for Cytotoxicity IC50: 3T3 NIH cells, 48 h; for interference with the growth of 3T3 cells: up to 20 μg/mL
Protocol: The 3T3-NIH cells were suspended in Dulbecco's Modified Eagle's Medium (DMEM) formulated with 10% FBS. Using flat bottomed plates, cells were plated at a concentration of 6×10^4 cells/mL and incubated for 24 h at 37° C. and 5% CO2 environment. […] Following exposure to each compound, cell viability was assessed by using 0.5 mg/mL of MTT {3-(4,5-dimethylthiazol-2-yl)-2,5-diphenyltetrazolium bromide for 4 h followed by the removal of supernatant and addition of DMSO to solubilize the formazan complex. The plates were read at 540 nm after one minute shaking and readings were processed using MS Excel software. The results were expressed as means±SD of triplicate readings.

[3] = system: NO produced by mouse macrophages J774.2 cell line; experiment: Nitrite accumulation in LPS-stimulated J774.2 macrophages (Griess method); format: cell-based; conditions: LPS-stimulated J774.2, 24 hours
Protocol: The mouse macrophage cell line J774.2 obtained from ECACC, Salisbury, Wiltshire (UK) was cultured in T75 flasks in complete DMEM containing 10% fetal bovine serum and supplemented with 1% streptomycin/penicillin. Flasks were kept at 37° C. in the atmosphere of humidified air containing 5% CO2. Cell were then seeded in 24 well (10^6 cells/mL) and nitric oxide synthase (NOS-2) in the macrophages was induced by addition of 20 μg/mL E. coli lipopolysaccharide (DIFCO Laboratories, Michigan, USA). The test compounds were added at a concentration of 25 μg/mL soon after LPS stimulation and incubated at 37° C. in 5% CO2. Cell culture supernatant was collected after 24 hours. Nitrite accumulation in J774.2 cell culture supernatant was measured using the Griess method, where 50 μL of 1% sulphanilamide in 2.5% phosphoric acid, followed by 50 μL of 0.1% naphtyl-ethylene diamine dihydrochloride in 2.5% phosphoric acid were added to 50 μL culture medium. After 10 minutes of incubation at room temperature the absorbance at 550 nm was read. Micromolar concentrations of nitrite were calculated from standard curve constructed with sodium nitrite a reference compound. The results were expressed as means±SD of duplicate readings.

T-cell proliferation = T-cell proliferation assay (PHA-stimulated PBMNCs, 3H-thymidine incorporation); format: cell-based, human; set-up: unit not given here; conditions: PHA 5 μg/mL stimulated PBMNCs
Protocol: The diluted blood was then layered onto lymphocyte separation medium (MP Biomedicals, Inc., Ohio, USA) and centrifuged at 400 g for 20 min at 25° C. […] Plates were then incubated at 37° C. in a humidified atmosphere of 5% CO2 in air for 72 hours. To each well, 0.5 μCi [methyl ^3H]-thymidine (Amersham Place Little Chalfont, Buckinghamshire, UK) was added for an additional 18 hours. Cells were harvested using a cell harvester (Inotech, Dottikon, Switzerland), and incorporation and level of radioactivity was measured by a liquid scintillation counter (Beckman coulter, LS 6500, Fullerton, Calif., USA).

IL-4 production = IL-4 production by PHA stimulated PBMNCs (ELISA); format: cell-based, human; conditions: 18 h
Protocol: The PBMNCs were cultured in a 96-well flat-bottomed plate (2.0×10^6 cell/mL) in the presence or absence of three concentrations of test compounds (1.0, 5.0, and 25 μg/mL), and phytohemagglutinin (PHA) in a final concentration of 7.5 μg/mL. After an incubation period of 18 h at 37° C. in 5% CO2, supernatant was collected for IL-4 determination. Interleukin-4 levels were measured by using enzyme-linked immunosorbent assay (ELISA) kit (Diaclone, France). The assay was performed according to the manufacturer's instructions. Briefly, in a 96-well ELISA plate which was coated with monoclonal mouse anti-human IL-4, 100 μl recombinant human IL-4 standards and culture supernatants samples were added. The plates were incubated for 2 hours at room temperature and washed three times with wash buffer, followed by the addition of biotinylated goat anti-human IL-4 and further incubated for 1 hour at room temperature. The plates were again washed and streptavidin conjugated horse raddish peroxidase was added and incubated for an additional 20 minutes at room temperature. After three final washes, the enzyme substrate solution was added and incubated for 12 to 15 minutes to allow color development at room temperature in the dark. Then stop solution was added and the plates were read at 450 nm in a plate reader (DIAReader GMBH, Wr. Neudorf, Austria). The results were analyzed using Microsoft Excel.

IL-2 production = IL-2 production by PHA/PMA stimulated PBMCs (ELISA); format: cell-based, human
Protocol: The PBMCs were cultured in a 96-well flat-bottomed plate (1.0×10^5 cell/well) in the presence or absence of three concentrations of test compounds (1.0, 5.0 and 20 μg/mL), and phytohemagglutinin (PHA) phorbol myristate acetate (PMA) in a final concentration of 5 ng/mL and 20 ng/mL, respectively. After an incubation period of 18 h at 37° C. in a humidified atmosphere of 5% CO2 in air, the supernatant was collected for IL-2 determination. Interleukin-2 levels were measured by using enzyme-linked immunosorbent assay (ELISA) development kit (R&D systems, Minneapolis, Minn., USA). The assay was performed according to the manufacturer's instructions. Briefly, a 96-well flat-bottomed ELISA plate was coated with 4.0 μg/mL mouse anti-human IL-2, in PBS, pH 7.4. Then, re-combinant human IL-2 standards and culture supernatant samples were added and incubated for 2 h followed by washing steps and then the addition of biotinylated goat anti-human IL-2. After an incubation period of 2 h at room temperature, the plates were again washed and streptavidin conjugated horse raddish peroxidase was added and incubated for additional 20 min at room temperature. After the final washes, an enzyme substrate solution of H2O2 and tetra methyl benzidine (1:1 v/v) was added and the color was allowed to develop at room temperature in the dark. The plates were then read at 450 nm in a plate reader (DIAReader GMBH, Wr. Neudorf, Austria). The results were analyzed using Microsoft Excel.

[4] = system: NO produced by mouse macrophages J774.2 cell line; experiment: Nitrite accumulation in LPS-stimulated J774.2 macrophages (Griess method); format: cell-based

Row | SMILES | IC50 (μg/mL) for phagocytes ROS [1] [µg/mL] | % of NO inhibited by 25 μg/mL of compound [3] [%] | other results
1 | CN(C)c1ccc(-c2nc3ccccc3s2)cc1 [Compound 14] | 11.8 ± 1.2 | 16.8 ± 0.8 | Cytotoxicity IC50 [2]: >25 µg/mL; interference with the growth of 3T3 cells [2]: did not interfere with the growth of 3T3 cells
2 | Cc1ccc(-c2nc3ccccc3s2)cc1 [Compound 15] | >100 | 10.8 ± 2.4 | 
3 | CC(C)Cc1ccc(C(C)C(=O)O)cc1 (centres unmarked) [Ibuprofen, reference compound] |  |  | IC50 ([1]; read-out: IC50 (μg/mL) for phagocytes ROS): 11.8 ± 1.2 µg/mL
4 | c1cncc(-c2nc3ccccc3s2)c1 [Compound 19] | >100 | 11.7 ± 1.7 | 
5 | Oc1ccccc1-c1nc2ccccc2s1 [Compound 16] | >100 | 20.2 ± 1.5 | 
6 | Clc1ccc(-c2nc3ccccc3s2)cc1Cl [Compound 26] | >100 | 35.7 ± 1.5 | 
7 | Fc1ccccc1-c1nc2ccccc2s1 [Compound 23] | >100 | 28.4 ± 2.5 | 
8 | c1ccc2cc(-c3nc4ccccc4s3)ccc2c1 [Compound 3] | >100 | 20.5 ± 5.9 | 
9 | Oc1cccc(-c2nc3ccccc3s2)c1 [Compound 5] | >100 | 44.5 ± 0.3 | Cytotoxicity IC50 [2]: >20 µg/mL; interference with the growth of 3T3 cells [2]: did not interfere with the growth of 3T3 cells; IC50 T-cell proliferation (T-cell proliferation): 2.7±0.2; IC50 IL-4 production (IL-4 production): 8.9 ± 0.6 µg/mL (≈ 39.2 µM); IC50 IL-2 production (IL-2 production; PHA/PMA stimulated PBMCs, 18 h incubation): 6.0 µg/mL (≈ 26.4 µM)
10 | Cc1ccccc1-c1nc2ccccc2s1 [Compound 7] | >100 | 5.4 ± 2.8 | 
11 | Clc1ccc(-c2nc3ccccc3s2)c(Cl)c1 [Compound 11] | >100 | −7.4 ± 3.0 | 
12 | Oc1ccc(-c2nc3ccccc3s2)c(O)c1 [Compound 13] | 11.1 ± 0.9 | 32.7 ± 8.3 | Cytotoxicity IC50 [2]: 11.5 ± 0.0 µg/mL; interference with the growth of 3T3 cells [2]: did not interfere with the growth of 3T3 cells
13 | COc1ccc(-c2nc3ccccc3s2)cc1OC [Compound 12] | >100 | −1.5 ± 0.6 | IC50 T-cell proliferation (T-cell proliferation): 1.0±0.1; IC50 IL-4 production (IL-4 production): < 1.0 µg/mL
14 | CCOc1ccc(-c2nc3ccccc3s2)cc1 [Compound 22] | >100 | 23.5 ± 3.7 | 
15 | Oc1cc(O)c(-c2nc3ccccc3s2)cc1O [Compound 18] | >100 | 78.1±1.6 | Cytotoxicity IC50 [2]: 10.4 µg/mL; IC50 T-cell proliferation (T-cell proliferation): 1.95±0.4; IC50 IL-4 production (IL-4 production): 8.0 ± 0.0 µg/mL (≈ 30.9 µM); IC50 (IL-2 production; experimental IL-2 IC50 listed in Table 3): 1.1 µg/mL (≈ 4.24 µM)
16 | Oc1cccc(-c2nc3ccccc3s2)c1O [Compound 10] | 1.1 ± 0.1 | 14.3 ± 1.0 | interference with the growth of 3T3 cells [2]: did not interfere with the growth of 3T3 cells; IC50 T-cell proliferation (T-cell proliferation): 0.99±0.1
17 | Clc1cccc(-c2nc3ccccc3s2)c1 [Compound 17] | 81.0 ± 4.1 | 14.1 ± 3.0 | 
18 | Brc1ccc(-c2nc3ccccc3s2)cc1 [Compound 21] | >100 | 11.5 ± 2.7 | 
19 | Oc1ccc(-c2nc3ccccc3s2)cc1O [Compound 9] | 3.7 ± 0.2 | 58.5±3.3 | Cytotoxicity IC50 [2]: 11.1 µg/mL and 11.4 ± 1.8 µg/mL; interference with the growth of 3T3 cells [2]: did not interfere with the growth of 3T3 cells; IC50 T-cell proliferation (T-cell proliferation): 1.2±0.0; IC50 NO production [4]: 12.6 ± 2.1 µg/mL (≈ 51.8 µM)
20 | c1ccc2sc(-c3ccncc3)nc2c1 [Compound 20] | 15.5 ± 1.0 | 41.6 ± 4.7 | Cytotoxicity IC50 [2]: >25 µg/mL
21 | Oc1ccc(Cl)cc1-c1nc2ccccc2s1 [Compound 6] | 34.3 ± 4.4 | 35.5 ± 7.4 | 
22 | Clc1ccc(-c2nc3ccccc3s2)cc1 [Compound 25] | >100 | 20.6 ± 5.3 | 
23 | c1csc(-c2nc3ccccc3s2)c1 [Compound 24] | 14.4 ± 2.5 | 30.3 ± 0.3 | Cytotoxicity IC50 [2]: >25 µg/mL; interference with the growth of 3T3 cells [2]: did not interfere with the growth of 3T3 cells
24 | CCOc1cccc(-c2nc3ccccc3s2)c1O [Compound 1] | >100 | 26.5 ± 0.0 | 
